Experimental data taken from US9840525B2, “Crystal form of tenofovir prodrug, preparation method thereof, and method of use thereof” (Jiangsu Hansoh Pharmaceutical Group Co., Ltd., priority 2014, dated 2017).

Experiments:
[1] = Flowability Study; assay type: physicochemical
Description: The flowability of the new crystal form prepared in Examples 1, 2 and 3 of the present invention was studied.

[2] = Determination of Absolute Bioavailability; settings: rat, in vivo; rats, intravenous administration and oral administration
[3] = Stability Study; assay type: physicochemical; settings: for Appearance / Crystal Form / Product Purity: 30° C. ± 2° C./RH 65% ± 5%
Description: The stability of the new crystal form prepared by the method of Example 1 of the present invention was studied.

CC(C)OC(=O)C(C)(C)N[P@](=O)(CO[C@H](C)Cn1cnc2c(N)ncnc21)Oc1ccccc1.O=C(O)/C=C/C(=O)O [crystal form A, 9-[(R)-2-[[(S)-[[[1-(isopropoxycarbonyl)-1-methyl]ethyl]amino]phenoxyphosphinyl]methoxyl]propyl]adenine fumarate]
Flowability [1]: good flowability | Repose Angle ([1]; listed as Example 1): 36° | Repose Angle ([1]; listed as Example 2): 35° | Repose Angle ([1]; listed as Example 3): 34° | bioavailability [2]: 81% | Appearance ([3]; 0 month): off-white powder | Crystal Form ([3]; 0 month): Crystal form A | Product Purity ([3]; 0 month): 98.97% | Appearance ([3]; 3 months): off-white powder | Crystal Form ([3]; 3 months): Crystal form A | Product Purity ([3]; 3 months): 98.95% | Appearance ([3]; 6 months): off-white powder | Crystal Form ([3]; 6 months): Crystal form A | Product Purity ([3]; 6 months): 98.92% | Stability ([3]; room temperature): stable at room temperature | Chemical degradation in the stability test ([3]; stability test): did not undergo chemical degradation | Crystal form transformation in the stability test ([3]; stability test): did not undergo transformation
